Reference: patent US20090185973A1, “METHODS, COMPOSITIONS, UNIT DOSAGE FORMS, AND KITS FOR PHARMACOLOGIC STRESS TESTING WITH REDUCED SIDE EFFECTS” (ADENOBIO N.V., priority 2008, published 2009)
Values joined by “and” are separate entries in the source; they are usually repeats but may differ in a detail not shown here. Equal values may be shown once. Read-outs that look alike come from different tables or passages of the source.

Experiments:
[1] = test system: patients with normal coronary reserve; experiment: Priming dose effect: time to peak and return to baseline, concurrent administration (Example 4); assay type: in vivo, human
Source text: As a test, a low priming dose of dipyridamole was combined with the concurrent administration of the two drugs to determine whether the time to peak and the occurrence of near maximal hyperaemia could be accelerated, especially when infusion time is reduced by, for example, one minute.

[2] = test system: patients suffering from ischemic heart disease; experiment: Transthoracic doppler echocardiography (TTDE) blood flow velocity in LAD, sequential administration (Example 1); assay type: in vivo, human; conditions: lower doses of dipyridamole (10, 14 and 18 μg/kg)
Description: In the combined administration, each of the two agents was administered at a dosage lower than its clinically preferred dosage when used as a single agent for myocardial perfusion imaging. Effects were measured using noninvasive transthoracic doppler echocardiography (TTDE).
Primary efficacy end-points were peak and mean diastolic flow velocities (measured as reflecting coronary blood flow values). The secondary end-point was patient tolerance to the procedure. The protocol was designed as follows.
Forty (40) consecutive patients suffering from ischemic heart disease were enrolled. Each patient served as their own control.
[…] Total doses are between about 4-6% of the lowest single-agent total dose of dipyridamole (i.e., 0.56 mg/kg, infused over a total of 4 minutes).
This dose is half the standard single-agent dosage rate of 140 μg/kg/min.

patients = assay type: in vivo, human; conditions: for PV Max, individual patients / MV Max, individual patients / MV Min, individual patients / PV Min, individual patients: listed as DIP
[3] = cited from earlier work
guinea-pig = conditions: pretreatment dipyridamole 0.025 mg (n = 5); after 14C-adenosine IV injection; mean; cited from earlier work
A2a receptor = A2a receptor (Homo sapiens, UniProt P29274); conditions: in vivo; cited from earlier work
[4] = DIP dose 28 μg/kg, ADE 140 μg/kg/min
[5] = DIP dose 35 μg/kg, ADE 140 μg/kg/min
[6] = DIP dose 40 μg/kg, ADE 140 μg/kg/min

Sequence of A2a receptor (P29274 whole entry): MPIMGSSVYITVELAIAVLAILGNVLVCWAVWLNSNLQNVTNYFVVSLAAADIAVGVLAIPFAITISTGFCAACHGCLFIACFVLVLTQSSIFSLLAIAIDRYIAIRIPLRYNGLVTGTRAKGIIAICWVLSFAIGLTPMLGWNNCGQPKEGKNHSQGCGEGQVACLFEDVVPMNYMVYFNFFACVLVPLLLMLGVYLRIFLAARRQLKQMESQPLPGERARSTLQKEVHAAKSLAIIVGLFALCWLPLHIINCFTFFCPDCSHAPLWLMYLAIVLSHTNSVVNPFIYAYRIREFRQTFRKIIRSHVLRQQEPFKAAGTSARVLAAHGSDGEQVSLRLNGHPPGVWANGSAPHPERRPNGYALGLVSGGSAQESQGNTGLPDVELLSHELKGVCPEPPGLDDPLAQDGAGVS

With OCCN(CCO)c1nc(N2CCCCC2)c2nc(N(CCO)CCO)nc(N3CCCCC3)c2n1 [dipyridamole] the “Effect of priming dose on time to peak” value ([1]; dipyridamole priming dose 0.05 mg, 3 patients) was “did not modify”, the “Effect of priming dose on time to peak” value ([1]; dipyridamole priming dose 0.1 mg) was “did modify” and the “Effect of priming dose on time to peak” value ([1]; dipyridamole priming dose 0.3 mg, 3 patients) was “did not perform better than 0.1 mg”. The “Effect in preliminary dose ranging studies” value [2] was “no effect”, the “PV Max, individual patient” value (patients; DIP dose 28 μg/kg bolus alone, ADE 140 μg/kg/min 3 min) was 26 cm/sec and the “MV Max, individual patient” value (patients; [4]) was 21 cm/s. The “MV Min, individual patient” value (patients; [4]) was 19 cm/s, the “PV Min, individual patient” value (patients; [4]) was 23 cm/sec and the “PV Max, individual patients” value (patients; DIP dose 35 μg/kg bolus alone, ADE 140 μg/kg/min 3 min) was 23 cm/sec and 40 cm/sec. The “MV Max, individual patients” value (patients; [5]) was 20 cm/s and 28 cm/s, the “MV Min, individual patients” value (patients; [5]) was 18 cm/s and 22 cm/s and the “PV Min, individual patients” value (patients; [5]) was 21 cm/sec and 30 cm/sec. The “PV Max, individual patients” value (patients; DIP dose 40 μg/kg bolus alone, ADE 140 μg/kg/min 3 min) was 35 cm/sec and 40 cm/sec, the “MV Max, individual patients” value (patients; [6]) was 25 cm/s and 29 cm/s and the “MV Min, individual patients” value (patients; [6]) was 23 cm/s and 24 cm/s. For the same compound, the “PV Min, individual patients” value (patients; [6]) was 33 cm/sec and 34 cm/sec, the “Effect on peak and mean diastolic velocities” value (patients; dipyridamole alone, bolus 28, 35 or 40 μg/kg) was “did not modify” and the “Symptoms recorded during a follow-up of 10 minutes” value (patients; in vivo) was “No symptoms”. The Solubility in saline ([3]; saline) was “poorly soluble”, the “Stability in the long term” value ([3]; solvents at pH>4) was “unstable” and the “14C distribution, Heart” value (guinea-pig) was 2.1 ± 1.01 percentage of ^14C administered. For the same compound, the “14C distribution, Lungs” value (guinea-pig) was 71.4 ± 4.9 (p < 0.05) percentage of ^14C administered.
In the case of Nc1nc(N/N=C/C2CCCCC2)nc2c1ncn2[C@@H]1O[C@H](CO)[C@@H](O)[C@H]1O [binodenoson], the Duration of action (A2a receptor) is given as 10 ± 6 min.
